In US20190167647A1, “PHARMACEUTICAL COMPOSITION FOR STROKE TREATMENT BASED ON AMPK INHIBITION” (INDUSTRY ACADEMY COOPERATION FOUNDATION OF SEJONG UNIVERSITY, priority 2016, published 2019):

What was measured:
neuronal cells = assay: H2O2 neurotoxicity with chelators (LDH secretion); assay type: cell-based
Experimental: There is reported that intracellular free zinc is increased in a neurotoxicity mechanism due to hydrogen peroxide, wherein hydrogen peroxide toxicity is reduced when the cells are treated using the zinc chelator. […] Therefore, in order to monitor whether effects of the drug #28 are associated with a reduction of zinc in the above case, the neuronal cells were treated with hydrogen peroxide (H2O2), a zinc chelator such as TPEN or CaEDTA and a calcium chelator such as ZnEDTA, followed by monitoring neurotoxicity (LDH secretion).

mouse = settings: administered to a mouse; cited from earlier work
[1] = tested on: cultured cerebral cortex neurons of a mouse; assay: H2O2-induced neurotoxicity, propidium iodide staining; assay type: cell-based; settings: H2O2 100 μM 4.5 hours; 10 μM drug; excepted drugs = no significant inhibition
Experimental: More particularly, the neurotoxicity model for observation of neurotoxicity inhibitory effects includes excitotoxicity, oxidative damage, etc. which are classified as a cause mechanism of stroke. NMDA (N-methyl-D-aspartate) was used as the excitotoxicity model while the oxidative model used herein was a hydrogen peroxide (H2O2) toxicity model. First, using NMDA (50 μM) or H2O2 (100 μM), the cultured cerebral cortex neurons of a mouse were treated for 1.5 hours and 4.5 hours, respectively, resulting in induction of neurotoxicity. The neurons were further treated with the selected 12 drugs (10 μM) as well as the existing selected drug #28 (20 μM). Then, after staining the neurons with propidium iodide (PI), the stained cells were quantified to determine a degree of cell death.

mouse cortical cultures [2] = assay: TPEN-induced caspase-3 activity; assay type: cell-based
From the text: (§1) Generally, application of TPEN as a zinc chelator easily flowing into the cells causes a cell death in the form of typical apoptosis (EDTA is not introduced into the cells). When adding zinc to the above treatment, intracellular free zinc ions are retained thus to reduce neuronal death and further reduce caspase-3 protease activity in the apoptosis process. Under expectation such that: the drug #28 and clioquinol may not only serve as a chelator but also play a role of an ion permeable carrier; these drugs flow into cells as combined with zinc; thereafter, the zinc is removed from the drug because a concentration of free zinc in the cytoplasm is too low; therefore, the concentration of free zinc in the cytoplasm is increased thus to reduce neurotoxicity due to TPEN, caspase-3 activity and neurotoxicity (LDH secretion) were under observation after treatment using zinc, the drug #28 and clioquinol.

mouse cortical cultures [3] = assay: TPEN-induced neurotoxicity (LDH secretion); assay type: cell-based
From the text: as §1

[4] = biological target: T1, recombinant AMPK (α2/β1/γ1) (Homo sapiens, UniProt P54646); assay: AMPK enzymatic activity assay (CycLex kit); assay type: biochemical; settings: 10 μM
T1 construct: purchased CycLex, Japan
Experimental: More particularly, AMPK enzymatic activity was measured by an AMPK activity assay kit (CycLex, Japan) and recombinant AMPK (α2/β1/γ1 CycLex, Japan).

[5] = tested on: cultured cerebral cortex neurons; assay: Zinc neurotoxicity, TUNEL staining and LDH assay; assay type: cell-based, mouse; settings: 300 μM ZnCl2 10 min, 10 hours later; 20 μM compound
Experimental: Cerebral cortex neurons of a mouse used in the present invention were extracted from the mouse embryos brain and cultured, followed by further culturing the same using a Dulbecco's modified Eagle's medium (DMEM, Gibco, Grand Island, N.Y., US) containing 5% fetal bovine serum (FBS) and 5% horse serum (HS) under conditions of 95% humidity, 5% CO2 and 37° C. temperature. For activation and differentiation of the above cells, these cells were proliferated at a density of 2×10^4 cells in 24-well tissue culture plate. Further, prior to treatment using zinc and the compounds, the cells were incubated in MEM medium without FBS and HS.
More particularly, the cultured cerebral cortex neurons according to the embodiment of the present invention were treated with 300 μM zinc (ZnCl2) for 10 minutes then removed. 10 hours later, cytotoxicity was observed by TUNEL staining or LDH (Lactate Dehydrogenase). Further, these cells were treated with AMPK inhibitor, that is, 20 μM compound C (+Cpd C, Tocris), followed by observation whether neurotoxicity is reduced or not.

cerebral cortex neurons = assay: Western blot of Bim and caspase-3 after zinc treatment; assay type: cell-based, mouse; settings: 300 μM ZnCl2, 20 μM compound
Experimental: More particularly, the cerebral cortex neurons were treated with 300 μM zinc (ZnCl2) for 2, 3, 4, 5 and 6 hours to induce zinc toxicity. From each sample, protein was separated and subjected to Western blot and treatment using 20 μM compound C (+Cpd C) as an AMPK inhibitor, so as to identify a relationship between the zinc toxicity and apoptosis.

[6] = Calcium chelation with Fura-2 dye (test tube); assay type: physicochemical; settings: Fura-2 dye, test tube
Experimental: In order to determine whether the above result is obtained by the chelation of Ca^2+ ions other than the drug #28, protective effects of the drug #28 (10 to 60 μM) after treatment using ionomycin, which is a calcium ion permeable carrier (‘calcium ionophore’) directly increasing the intracellular calcium concentration, were under observation. Further, using a Fura-2 dye that is combined with calcium to represent fluorescence, it was monitored whether the drug #28 is combined with calcium on a test tube and represents chelating effects.

[7] = tested on: cultured cerebral cortex neurons of a mouse; assay: Zinc ion permeable carrier test, ZinPyr-1; assay type: cell-based; settings: #28 0.05 μM, clioquinol 0.5 μM
Experimental: ZinPyr-1 is a fluorescent dye which has a lower Kd value than that of FluoZin-3 and is used to measure a change in a zinc concentration even at a lower concentration. Whether the drug #28 of the present invention can act as an ion permeable carrier was under observation using ZinPyr-1. More particularly, the cultured cerebral cortex neurons of a mouse were treated with ZinPyr-1 then treated with the drug #28 (0.05 μM) and clioquinol (0.5 μM) in a typically used neuronal cell culture medium, so as to determine a change in zinc ion concentrations in the neurons. Also, a non-treatment group was used as a control group.
Therefore, after adding a further 0.5 μM concentration of zinc to the cell culture medium, a change in zinc concentration in the cells was under observation.

[8] = Free zinc concentration by fluorescent dye (Newport green DCF, FluoZin-3); assay type: physicochemical; settings: 20 μM; Newport green DCF or FluoZin-3
Experimental: Further, in conjunction with clioquinol (20 μM) or the drug #28 (20 μM), a zinc fluorescent dye, i.e., Newport green DCF (0.5 μM, Kd(Zn)=1 uM) or FluoZin-3 (0.5 μM, Kd(Zn)=15 nM) was used for measurement of free zinc concentration.

T1 sequence (P54646 whole entry): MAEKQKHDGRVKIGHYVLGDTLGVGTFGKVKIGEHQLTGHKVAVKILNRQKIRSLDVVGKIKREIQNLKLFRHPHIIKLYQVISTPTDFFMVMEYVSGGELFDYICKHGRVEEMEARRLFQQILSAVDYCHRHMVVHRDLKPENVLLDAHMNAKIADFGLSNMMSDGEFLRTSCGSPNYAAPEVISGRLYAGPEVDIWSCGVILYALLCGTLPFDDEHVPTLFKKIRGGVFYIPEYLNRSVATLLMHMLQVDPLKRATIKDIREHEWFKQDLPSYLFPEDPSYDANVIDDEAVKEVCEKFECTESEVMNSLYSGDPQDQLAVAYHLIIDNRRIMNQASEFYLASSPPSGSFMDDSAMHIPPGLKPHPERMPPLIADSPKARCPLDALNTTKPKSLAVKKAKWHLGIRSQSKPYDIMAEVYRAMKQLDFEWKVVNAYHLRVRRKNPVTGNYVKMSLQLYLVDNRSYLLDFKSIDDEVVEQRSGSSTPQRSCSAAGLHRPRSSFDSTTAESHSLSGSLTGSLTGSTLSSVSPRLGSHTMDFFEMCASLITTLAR
T1 sequence (Q9Y478 whole entry partner): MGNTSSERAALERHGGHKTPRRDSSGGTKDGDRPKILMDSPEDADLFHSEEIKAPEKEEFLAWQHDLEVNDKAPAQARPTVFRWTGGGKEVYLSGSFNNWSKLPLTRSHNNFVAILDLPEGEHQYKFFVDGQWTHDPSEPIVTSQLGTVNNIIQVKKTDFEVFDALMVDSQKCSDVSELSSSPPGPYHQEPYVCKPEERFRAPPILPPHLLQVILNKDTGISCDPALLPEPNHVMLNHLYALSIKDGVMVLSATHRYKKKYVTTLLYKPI
T1 sequence (P54619 whole entry partner): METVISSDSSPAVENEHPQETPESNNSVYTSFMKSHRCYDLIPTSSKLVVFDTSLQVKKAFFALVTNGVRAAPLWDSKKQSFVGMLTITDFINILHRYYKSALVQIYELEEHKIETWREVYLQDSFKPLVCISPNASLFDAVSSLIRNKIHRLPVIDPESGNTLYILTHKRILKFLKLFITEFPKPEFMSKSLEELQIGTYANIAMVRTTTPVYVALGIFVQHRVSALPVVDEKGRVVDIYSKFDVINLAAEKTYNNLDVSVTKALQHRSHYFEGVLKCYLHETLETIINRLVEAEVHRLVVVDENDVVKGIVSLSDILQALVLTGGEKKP

In the case of `c1ccc(CN(CCN(Cc2ccccn2)Cc2ccccn2)Cc2ccccn2)nc1` [TPEN, N,N,N′,N′-tetrakis (2-pyridylmethyl) ethylenediamine], the “neurotoxicity caused by hydrogen peroxide” value (“neurotoxicity caused” below) (neuronal cells) is reported as “reduced neurotoxicity caused by hydrogen peroxide”.

With `O=C([O-])CN(CCN(CC(=O)O)CC(=O)O)CC(=O)[O-].[Zn+2]` [ZnEDTA] the “neurotoxicity caused” value (neuronal cells) was “did not inhibit toxicity”.

For `C=C1C(=O)OC(CCCCCCCC)C1C(=O)O` (stereo not drawn) [Compound C75], the “size of infarcted part” value (mouse) is listed as “significantly reduces a size of an infracted part”.

For `Cc1ccccc1NC1=NC(=O)/C(=C/c2c[nH]c3ccccc23)S1` [Compound 4B03, (5Z)-5-(1H-Indol-3-ylmethylene)-2-[(2-methylphenyl)amino]-1,3-thiazol-4(5H)-one], the “inhibition of H2O2-induced neurotoxicity” value [1] was “other than two drugs”.

In the case of `Cc1cccc(NC2=NC(=O)/C(=C/c3c[nH]c4ccccc34)S2)c1C` [Compound 4B04, (5Z)-2-[(2,3-Dimethylphenyl)amino]-5-(1H-indol-3-ylmethylene)-1,3-thiazol-4(5H)-one], the “inhibition of H2O2-induced neurotoxicity” value [1] is reported as “other than two drugs”.

In the case of `[Cl-].[Cl-].[Zn+2]` [zinc], the “caspase-3 activity induced by TPEN” value (mouse cortical cultures [2]) is reported as “significantly reduce caspase-3 activity induced by TPEN” and the “neurotoxicity by TPEN” value (mouse cortical cultures [3]) is reported as “decrease neurotoxicity by TPEN”.

In the case of `c1cc(-c2cnn3cc(-c4ccc(OCCN5CCCCC5)cc4)cnc23)ccn1` [Compound C], the “Mean (% remaining activity)” value [4] is given as 5.3000%, the “size of infarcted part” value (mouse) is given as “significantly reduces a size of an infracted part” and the “zinc neurotoxicity (TUNEL staining and LDH assay)” value [5] is given as “significantly reduced”. For the same molecule, the “increase in Bim caused by zinc toxicity” value (cerebral cortex neurons) was “reduce” and the “increase in caspase-3 activity caused by zinc toxicity” value (cerebral cortex neurons) was “reduce”.

For `O=C(O)CN(CCN(CC(=O)O)CC(=O)O)CC(=O)O` [EDTA, reference compound], the “chelating effects for calcium” value [6] was “good chelating effects at a low calcium concentration”.

In the case of `Oc1c(I)cc(Cl)c2cccnc12` [clioquinol, reference compound], the “increase of zinc in neurons, general culture conditions” value [7] is reported as “an increase of zinc by clioquinol was observed”, the “caspase-3 activity induced by TPEN” value (mouse cortical cultures [2]) is reported as “significantly reduce caspase-3 activity induced by TPEN” and the free zinc ions [8] is reported as “reduce free zinc ions”. The “neurotoxicity by TPEN” value (mouse cortical cultures [3]) was “decrease neurotoxicity by TPEN”.

For `O=C([O-])CN(CCN(CC(=O)[O-])CC(=O)[O-])CC(=O)[O-].[Ca+2].[Na+].[Na+]` [CaEDTA], the “neurotoxicity caused” value (neuronal cells) was “significantly reduced toxicity”.
